The values below come from patent US20250011445A1 (priority 2020, published 2025).

Read-outs that look alike come from different tables or passages of the source. *1 amine or outer side, *2 acyl side, *3 side chain or, on linkers, in order; H or OH if unused. Where a SMILES comes first, the peptide text is derived from it. Bridges are numbered along the chain shown (N, C = ends). Roman numbers before positions name the chains, in order. [ ]: non-standard residue; d: D form. The star is where a group is joined. Hexamethylenediamine = C(CCCN[*:2])CCN[*:1]; Dip = N[C@H](C(=O)O)C(c1ccccc1)c1ccccc1; Chg = N[C@H](C(=O)O)C1CCCCC1; NMeA = CN[C@@H](C)C(=O)O; Cbz = O=C(OCc1ccccc1)*; CH2F = FC*

Assay [1] has as its system Primary human lung fibroblasts (MRC5 cells). The experiment in a line: Death ligand-induced cell death in MRC5 cells, Sytox green, Incucyte. Format: cell-based. The settings on record: for inhibition of TRAIL-induced cell death: MRC5 cells, FIG. 5.
Assay [2] deals with Human pancreatic ductal epithelial cells (HPDECs). As to the kind of experiment: Death ligand-induced cell death in HPDECs, Sytox green, Incucyte. The class given is cell-based.
The next assay concerns Tnfr1KOHoil-1E-KO mice. As to the kind of experiment: Cell death-driven lethal skin inflammation (dermatitis) model, Tnfr1KO Hoil-1E-KO mice. Format: in vivo. The settings on record: treated once inflammation has been initiated (from 30 days onwards).
In the next assay the test system is reovirus 1/L (R1/L). Conditions: non-therapeutic inhibition; BOOP model and ARDS model; cited from earlier work.
For assay [3], the system named is Lung endothelial cells (LECs). Format: cell-based, mouse. Conditions: for sensitivity of cells to death ligand-induced cell death: 1 μg/ml Death Ligand, with zVAD.
The subject of the next assay is MRC5 cells. As to the kind of experiment: Western blot of cell lysates of IFN-treated MRC5 cells. Format: cell-based, human. Conditions: IFNs for 24 h. The method, then:
FIG. 6: MRC5 cells were treated with the indicated IFNs for 24 h before cells were lysed and cell lysates were analysed for presence of the indicated proteins by western blotting.

In a further assay the test system is NIH3T3 cells. As to the kind of experiment: Death ligand-induced cell death in NIH3T3 cells, Sytox green, Incucyte. The class given is cell-based, mouse. The settings on record: in presence of zVAD-fmk.

With `CN[C@@H](C)C(=O)N[C@H](C(=O)N1CCC[C@H]1C(=O)N[C@H](C(=O)NCCCCCCNC(=O)[C@@H](NC(=O)[C@@H]1CCCN1C(=O)[C@@H](NC(=O)[C@H](C)NC)C1CCCCC1)C(c1ccccc1)c1ccccc1)C(c1ccccc1)c1ccccc1)C1CCCCC1` [BV6] (I: H-[NMeA][Chg]P[Dip] / II: H-[NMeA][Chg]P[Dip]; linker I:C-II:C via Hexamethylenediamine), in assay [1], the “toxicity in combination with TRAIL, IFN-gamma alone or IFN-gamma and TRAIL” value is “enhanced toxicity”. The “sensitisation of cells by IAP antagonist alone” value in assay [1] (BV6 alone, FIG. 9) is “did not sensitise these cells”.
`CN1C(=O)NC(Cc2c[nH]c3c(Cl)cccc23)C1=O` (stereo not shown) [Nec-1s, reference compound]: the “inhibition of TRAIL-induced cell death” value in assay [1] was “could not be blocked”. Moreover, the “inhibition of cell death induced by TRAIL in combination with IFN-gamma” value in assay [2] is recorded as “delayed the death of HPDECs induced by TRAIL in combination with IFN-gamma, it could not prevent it”.
In the case of `C[C@]12C=CC(=O)C=C1CC[C@H]1[C@@H]3C[C@@H](O)[C@](O)(C(=O)CO)[C@@]3(C)C[C@H](O)[C@@]12F` [Triamcinolone], in the assay on Tnfr1KOHoil-1E-KO mice, the “ongoing skin inflammation / skin lesions, therapeutic treatment” value was “insufficient to achieve a meaningful therapeutic effect”.
Consider `CC[C@H](C)[C@H](NC(=O)OCc1ccccc1)C(=O)N[C@@H](CCC(=O)OC)C(=O)N[C@H](C(=O)N[C@@H](CC(=O)OC)C(=O)CF)[C@@H](C)O` [zIETD-fmk] (Cbz-IE(OMe)TD(OMe)-CH2F), for which the “aberrant cell death, inflammation and fibrosis in lung tissue” value in the assay with reovirus 1/L (R1/L) is “reduces aberrant cell death, inflammation and fibrosis in lung tissue”.
For `COC(=O)C[C@H](NC(=O)[C@H](C)NC(=O)[C@@H](NC(=O)OCc1ccccc1)C(C)C)C(=O)CF` [zVAD-fmk, reference compound] (Cbz-Val-Ala-Asp(OMe)-CH2F), in assay [1] (FIG. 9), the “inhibition of cell death induced by the different combinations (BV6, TRAIL, IFN-gamma)” value is on record as “completely inhibited”. Besides, the “inhibition of TRAIL-induced cell death” value in assay [1] is “completely blocked”. Besides, the “dependence of observed cell death on caspase inhibition” value in assay [3] (all death ligands) was “required inhibition of caspases by zVAD”. Moreover, the “inhibition of cell death induced by TRAIL in combination with IFN-gamma” value in assay [2] (HPDECs) is reported as “delayed the death of HPDECs induced by TRAIL in combination with IFN-gamma, it could not prevent it”.
For the molecule IFN-gamma: type II IFN, in the assay with MRC5 cells, the “FN14 expression (western blot)” value is given as “upregulation of FN14” and the “MLKL expression (western blot)” value is given as “strongly upregulated”. The “effect of IFN pre-treatment on sensitivity to TRAIL-induced cell death” value in assay [1] (IFN overnight, then TRAIL 1 μg/ml) is “did not increase their sensitivity to cell death induction by TRAIL”. The “sensitisation to death induction by TRAIL or FasL” value in the assay with NIH3T3 cells (IFN pretreatment 24 hr, 1 μg/ml Death Ligand) is reported as “significantly sensitised them to death induction by TRAIL or FasL”. Further, in the assay on NIH3T3 cells (without death ligand), the “cell death induced by IFN alone” value is given as “sufficient to significantly induce cell death”. Moreover, the “effect of IFN pre-treatment on sensitivity to death ligand-induced cell death” value in assay [3] (IFN overnight) was “sensitised these cells to FasL-mediated death”. Besides, the “effect of IFN pre-treatment on sensitivity to TRAIL-induced cell death” value in assay [2] (IFN overnight, then TRAIL 100 ng/ml) is reported as “did not increase their sensitivity to cell death induction by TRAIL”. Moreover, the “effect of IFN pre-treatment on kinetics of TRAIL-induced cell death” value in assay [2] (compared to TRAIL alone) is listed as “accelerated TRAIL-induced cell death”.

B1: FasL: Death Ligand, Fas ligand (protein, UniProt P48023 130-281, looked up)
Tumor necrosis factor ligand …: QIGHPSPPPEKKELRKVAHLTGKSNSRSMPLEWEDTYGIVLLSGVKYKKGGLVINETGLYFVYSKVYFRGQSCNNLPLSHKVYMRNSKYPQDLVMMEGKMMSYCTTGQMWARSSYLGAVFNLTSADHLYVNVSELSLVNFEESQTFFGLYKL
Regarding B1, the “sensitivity of cells to death ligand-induced cell death” value in assay [3] is “relatively insensitive”.

B2: TRAIL: Death Ligand, also known as Apo2L (protein, UniProt P50591 1-281, looked up)
Tumor necrosis factor ligand …: MAMMEVQGGPSLGQTCVLIVIFTVLLQSLCVAVTYVYFTNELKQMQDKYSKSGIACFLKEDDSYWDPNDEESMNSPCWQVKWQLRQLVRKMILRTSEETISTVQEKQQNISPLVRERGPQRVAAHITGTRGRSNTLSSPNSKNEKALGRKINSWESSRSGHSFLSNLHLRNGELVIHEKGFYYIYSQTYFRFQEEIKENTKNDKQMVQYIYKYTSYPDPILLMKSARNSCWSKDAEYGLYSIYQGGIFELKENDRIFVSVTNEHLIDMDHEASFFGAFLVG
As to B2, the figures for the “sensitivity of cells to death ligand-induced cell death” value in assay [1] (1 μg/ml Death Ligand), in assay [3] and in assay [2] (100 ng/ml Death Ligand) were “exquisitely sensitive to TRAIL-induced apoptosis”, “highly sensitive to cell death induction” and “exquisitely sensitive to TRAIL-induced apoptosis”, respectively.
